Assay results: US10729749B2, “Neurodegenerative disorders” (priority 2014, dated 2020)
Ends that are not written are not given here.

What was measured:
[1] = target: α7 nicotinic-receptor (Homo sapiens, UniProt P36544); details: cited from earlier work
[2] = test system: PC12 cells; experiment: Acetylcholinesterase activity assay (AChE release from PC12 cells, Ellman reagent); assay type: cell-based; details: % AChE release compared to untreated control
Experimental: AChE activity was measured using the Ellman reagent that measures the presence of thiol groups as a result of AChE activity. Cells were plated the day before the experiment as for the cell viability assay. […] The Ellman reagent was prepared as a mixture of the 3 solutions in a ratio 33(A):3(B):4(C). Absorbance measurements were taken at regular intervals (3, 10, 30 and 60 mins) across experiments at 405 nm.

[3] = Cell viability assay (Cell Counting Kit-8); assay type: cell-based; details: % PC12 cell viability compared to untreated control;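 also: PC12 cells in 96-well plates, WST-8 turned into formazan by cellular dehydrogenases, absorbance read at 450 nm after 2 h with the reagent, signal proportional to living cell number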
Text: A Cell Counting Kit-8 (CCK-8) was used as an improvement of the SRB technique used before. By utilizing the highly water-soluble tetrazolium salt WST-8, CCK-8 produces a water-soluble formazan dye upon reduction in the presence of an electron carrier. WST-8 is reduced by dehydrogenases in cells to give a yellow colored product (formazan), which is soluble in the tissue culture medium. The amount of the formazan dye generated by the activity of dehydrogenases in cells is directly proportional to the number of living cells. PC12 cells are plated in 200 μl of complete growth medium the day before the experiment in 96 well plates. […] Subsequently, 100 μl of growth medium is removed and 10 μl of CCK-8 (Cell Counting Kit-8) solution is added. The plate is incubated for 2 hours in the incubator and then placed in the absorbance plate reader. The absorbance must be measured at 450 nm.

[4] = test system: PC12 cells; experiment: Calcium fluorometry (Fluo-8, acetylcholine-induced calcium influx); assay type: cell-based; parameters: Calcium: scale not given here; details: for Calcium: calcium influx value, control based on acetylcholine alone
Text: A final criterion used to determine active peptides is the amount of calcium influx into PC12 cells caused by the peptide. The calcium influx value can be calculated as described in the methods section. The calcium value corresponds to the result from the experiment when applying T30 or Aβ alone or in conjunction with the small peptides. The control value for these experiments is based on the calcium influx induced by acetylcholine alone. Preferably, the peptide, derivative or analogue thereof has a calcium influx value of less than 120, and more preferably a value of 97-120.
PC12 cells are plated in 200 μl of complete growth medium the day before the experiment in 96 well plates. On the day of the experiment, the Fluo-8 solution (Abcam) is prepared (as per provider protocol). Subsequently, 100 μl of growth medium is removed and 100 μl of Fluo-8 solution is added. Treatments with T30 or Aβ in conjunction with NBP-14 or small peptides are added and incubated for 30 minutes in the incubator and 30 minutes room temperature.
After 1 hour, the plate is placed in the fluorescence plate reader (Fluostar). Before reading the fluorescence, acetylcholine (ACh) 100 μM is prepared and placed in the Fluostar injector. For each well, the reading will be formed by a basal fluorescence followed by acetylcholine injection that will induce an increase of calcium via nicotinic receptors. The effects of the peptides are then evaluated.

[5] = test system: PC12 cells; experiment: Value coefficient (AChE release vs PC12 cell viability) and filter selection; assay type: cell-based; details: for Value AChE/Viability: 1.0 to 1.1 = protective, control = 1; for neuroprotective agent against T30 when all four filters are taken into consideration / neuroprotective agent against Aβ when all four filters are taken into consideration: filters: value coefficient, in silico binding, calcium influx, peptide size
Text: AChE release vs PC12 cell viability (for which there is a significant negative correlation); • 2. In silico binding to the allosteric site of the α7 nicotinic-receptor; • 3. Calcium influx into PC12 cells; and • 4. Peptide size.

[6] = T30 5 μM + small peptide 0.5 μM

α7 nicotinic-receptor, sequence (P36544 23-502): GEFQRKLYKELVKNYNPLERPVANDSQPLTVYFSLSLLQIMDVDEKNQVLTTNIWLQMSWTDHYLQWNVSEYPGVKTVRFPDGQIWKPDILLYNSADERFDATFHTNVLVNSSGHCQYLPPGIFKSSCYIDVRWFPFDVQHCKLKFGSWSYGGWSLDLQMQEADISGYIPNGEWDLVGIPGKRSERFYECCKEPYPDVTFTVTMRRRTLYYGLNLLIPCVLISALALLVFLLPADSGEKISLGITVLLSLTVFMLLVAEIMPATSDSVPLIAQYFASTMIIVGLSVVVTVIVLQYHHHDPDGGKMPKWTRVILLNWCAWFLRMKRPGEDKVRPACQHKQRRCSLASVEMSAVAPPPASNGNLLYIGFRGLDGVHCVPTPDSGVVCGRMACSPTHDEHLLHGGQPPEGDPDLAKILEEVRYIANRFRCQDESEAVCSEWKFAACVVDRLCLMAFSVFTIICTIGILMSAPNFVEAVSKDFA

Compound	AChE ([2]; Aβ 5 μM + small peptide 0.5 μM)	viability ([3]; Aβ 5 μM + small peptide 0.5 μM)	Calcium ([4]; Aβ + small peptide)	Value AChE/Viability ([5]; Aβ 5 μM + small peptide 0.5 μM)	also measured
COc1ccc2c3c1O[C@H]1C[C@@H](O)C=C[C@@]31CCN(C)C2 [galanthamine]					affinity for the α7 nicotinic-receptor [1]: 10 µM
AEFHRWSSYMVHWK (listed as Homo sapiens) [T14, linear 14 amino acid peptide from the C-terminus of AChE]					affinity for the α7 nicotinic-receptor [1]: 0.005 µM
HWKAEFHRWSSY [NBP-1201]	94.84%	93.1%	114.35	1.02	
KAEFH [NBP-503]	117.63%	110%	195.67	1.07	
KAEFHRWSSYMV [NBP-1203]	99.63%	95.5%	192.38	1.04	
KAEFHRWSSYMVH [NBP-1303]	96.73%	91.2%	106.33	1.06	
MVHWKA [NBP-613, MVHWKA]					AChE [2, 6]: 103.45%; viability [3, 6]: 103%; Calcium ([4]; T30 + small peptide): 102.29; dose-dependent effect on calcium potentiation against T30 ([4]; dose-dependent experiments, FIGS. 8 and 9): protect against T30 effects; Value AChE/Viability [5, 6]: 1; neuroprotective agent against T30 when all four filters are taken into consideration [5]: neuroprotective agents against T30
MVHWKAEFHR [NBP-1013]					AChE [2, 6]: 91.79%; viability [3, 6]: 85.3%; Calcium ([4]; T30 + small peptide): 181.12; Value AChE/Viability [5, 6]: 1.08
MVHWKAEFHRWS [NBP-1213]	93.73%	90.8%	146.97	1.03	
MVHWKAEFHRWSS [NBP-1313]					AChE [2, 6]: 93.64%; viability [3, 6]: 89%; Calcium ([4]; T30 + small peptide): 118.94; Value AChE/Viability [5, 6]: 1.05
MVHWKAEFHRWSSY [NBP-1413]	99.85%	95.2%	125.28	1.05	
RWSSY [NBP-508]	106.06%	97.6%	120.72	1.09	
RWSSYMV [NBP-708, RWSSYMV]					AChE [2, 6]: 97.79%; viability [3, 6]: 97.8%; Calcium ([4]; T30 + small peptide): 97.04; Value AChE/Viability [5, 6]: 1; neuroprotective agent against T30 when all four filters are taken into consideration [5]: neuroprotective agents against T30
RWSSYMVHWKA [NBP-1108]	82.74%	77.7%	392.11	1.06	
RWSSYMVHWKAEFH [NBP-1408]					AChE [2, 6]: 93.64%; viability [3, 6]: 93.6%; Calcium ([4]; T30 + small peptide): 80.25; Value AChE/Viability [5, 6]: 1
SSYMV [NBP-510]	104.25%	101%	167.56	1.03	
SSYMVHW [NBP-710, SSYMVHW]	108.85%	109%	114.33	1	neuroprotective agent against Aβ when all four filters are taken into consideration [5]: agents against Aβ
SSYMVHWK [NBP-810]	96.22%	95.3%	156.05	1.01	
SSYMVHWKAEFH [NBP-1210]	98.18%	97.5%	127.83	1.01	

Compound	AChE ([2]; Aβ 5 μM + small peptide 0.5 μM)	viability ([3]; Aβ 5 μM + small peptide 0.5 μM)	Calcium ([4]; Aβ + small peptide)	Value AChE/Viability ([5]; Aβ 5 μM + small peptide 0.5 μM)	also measured
SSYMVHWKAEFHRW [NBP-1410]	93.51%	93.5%	160.54	1	AChE [2, 6]: 93.51%; viability [3, 6]: 93.5%; Calcium ([4]; T30 + small peptide): 120.09; Value AChE/Viability [5, 6]: 1
SYMVHW [NBP-611, SYMVHW]	88.60%	82.2%	114.39	1.08	neuroprotective agent against Aβ when all four filters are taken into consideration [5]: agents against Aβ
SYMVHWK [NBP-711]	108.57%	106%	148.17	1.02	
SYMVHWKAEF [NBP-1011]	84.13%	81.7%	161.87	1.03	
SYMVHWKAEFHRW [NBP-1311]	93.51%	86.1%	137.63	1.09	
VHWKAE [NBP-614]	85.05%	77.7%	124.34	1.09	
VHWKAEFHRWSS [NBP-1214]	89.28%	85.5%	217.64	1.04	
VHWKAEFHRWSSY [NBP-1314]	104.08%	97.9%	130.85	1.06	
WKAEFH [NBP-602]					AChE [2, 6]: 112.32%; viability [3, 6]: 108%; Calcium ([4]; T30 + small peptide): 169.86; Value AChE/Viability [5, 6]: 1.04
WKAEFHRWSSY [NBP-1102]					AChE [2, 6]: 104.31%; viability [3, 6]: 104%; Calcium ([4]; T30 + small peptide): 89.28; Value AChE/Viability [5, 6]: 1
WKAEFHRWSSYMVH [NBP-1402]	99.85%	91.6%	127.81	1.09	
WSSYM [NBP-509]	106.20%	102%	363.48	1.04	
WSSYMVH [NBP-709]	108.99%	102%	288.61	1.07	
WSSYMVHWKA [NBP-1009]	101.23%	97.5%	255.80	1.04	
WSSYMVHWKAEFHR [NBP-1409]					AChE [2, 6]: 94.85%; viability [3, 6]: 94.8%; Calcium ([4]; T30 + small peptide): 94.59; Value AChE/Viability [5, 6]: 1
YMVHW [NBP-512]	104.81%	104%	163.09	1.01	
YMVHWKAEFHR [NBP-1112]	98.77%	93.4%	127.62	1.06	
YMVHWKAEFHRW [NBP-1212]					AChE [2, 6]: 88.29%; viability [3, 6]: 88.3%; Calcium ([4]; T30 + small peptide): 78; Value AChE/Viability [5, 6]: 1
